Test results reported in patent EP4772513A1, “PI3K-ALPHA INHIBITOR AND USE THEREOF” (TYK Medicines (Zhengzhou), Inc., priority 2023, dated 2025).

Columns and labels:
[1] = tested on: Human breast cancer cells SK-BR-3 (WT); assay: Cell proliferation inhibition assay (CTG), SK-BR-3 (WT); type: cell-based; details: Homo sapiens, 72 h, SK-BR-3 (WT) cells, 3 days incubation, CTG readout
Procedure: (§1) Cell Proliferation Inhibition Assay
(§2) 1. Experimental Materials
(§3) II. Experimental Protocol
(§4) • a) Cell suspension was prepared; • b) The medium was removed from the culture flask; • c) The cells were rinsed once with PBS; • d) Trypsin was added for digestion, and the cells were centrifuged and collected; • e) The cells were resuspended in medium, counted and adjusted to an appropriate concentration; • f) 100 µL of cell suspension was added to each well of a 96-well plate. One plate was used for each cell line, which was incubated overnight in a 37 °C, 5% CO2 incubator.
(§5) 2. Treatment of Compounds
(§6) • a) Serial dilutions of the test compounds were prepared: The compound was prepared as a 10 mM stock solution. 18 µL of the stock solution was dissolved in 982 µL of the culture medium containing DMSO, followed by 4-fold serial dilutions in culture medium containing 0.5% DMSO to give 9 concentrations. The concentrations of the diluted compound were as follows: 180000 nM, 45000 nM, 11250 nM, 2812.5 nM, 703.13 nM, 175.78 nM, 43.95 nM, 10.99 nM, and 2.75 nM. • b) After thorough mixing, 20 µL of each compound solution was added to the cell plate containing 100 µL of cells per well. Each concentration was tested in triplicate. Final concentrations of the compound were as follows: 30000 nM, 7500 nM, 1875 nM, 468.75 nM, 117.188 nM, 29.30 nM, 7.32 nM, 1.83 nM, and 0.46 nM. • c) The cells were transferred into the incubator and incubated for 3 days.
(§7) The cell plate was removed, 25 µL of CTG reagent was added to each well of the 96-well plate, the mixture was shook on a plate shaker at room temperature for 10 minutes, and the plate was read.
(§8) The cell survival rate was calculated using the following formula (% Cell Survival): % Cell Survival = 100% × (OD_Sample−OD_LCave)/(OD_HC−OD_LCave) [formula] • OD_HC: Reading of the 0.1‰ DMSO control group • OD_Sample: Reading of cells treated with compound • OD_LCave: Reading of blank medium
(§9) Analyzed by Prism: Dose-response-Inhibition - Log (inhibitor) vs response (three parameters for the best fit).

[2] = tested on: Human breast cancer cells T47D (H1047R); assay: Cell proliferation inhibition assay (CTG), T47D (H1047R); type: cell-based; details: Homo sapiens, 72 h, 3 days incubation, CTG readout
Procedure: as §1, §2, §3, §4, §5, §6, §7, §8, §9

| Structure (SMILES) | IC50 [1] | IC50 [2] |
| --- | --- | --- |
| Cc1ncn(C)c1S(=O)(=O)N1CCc2c(oc3c([C@@H](C)Nc4ccc(Cl)nc4C(=O)O)cc(F)cc3c2=O)C1 [Compound C126] | > 5000 nM | 500 to 2000 nM |
| C[C@@H](Nc1ccc(Cl)nc1C(=O)O)c1cc(F)cc2c(=O)c3c(oc12)CN(S(=O)(=O)c1cccc(F)c1)CC3 [Compound C94] | > 5000 nM | ≤ 500 nM |
| C[C@@H]1COCCN1S(=O)(=O)N1CCc2c(oc3c([C@@H](C)Nc4ccc(Cl)nc4C(=O)O)cc(F)cc3c2=O)C1 [Compound C116] | > 5000 nM | ≤ 500 nM |
| C[C@@H](Nc1ccc(Cl)nc1C(=O)O)c1cc(F)cc2c(=O)c3c(oc12)CN(S(=O)(=O)N1CCOCC1)CC3 [Compound C67] | > 5000 nM | ≤ 500 nM |
| C[C@@H](Nc1ccc(Cl)nc1C(=O)O)c1cc(F)cc2c(=O)c3c(oc12)CN(S(=O)(=O)N1CCC1)CC3 [Compound C73] | > 5000 nM | 500 to 2000 nM |
| Cc1noc(C)c1S(=O)(=O)N1CCc2c(oc3c([C@@H](C)Nc4ccc(Cl)nc4C(=O)O)cc(F)cc3c2=O)C1 [Compound C118] | > 5000 nM | ≤ 500 nM |
| COc1ccc(S(=O)(=O)N2CCc3c(oc4c([C@@H](C)Nc5ccc(Cl)nc5C(=O)O)cc(F)cc4c3=O)C2)cc1 [Compound C98] | > 5000 nM | ≤ 500 nM |
| CC(Nc1ccccc1C(=O)O)c1cc(F)cc2c(=O)c3c(oc12)CN(C(=O)N1CCC1)CC3 (single isomer, unassigned) [Compound C47] | > 5000 nM | ≤ 500 nM |
| C[C@@H]1CN(S(=O)(=O)N2CCc3c(oc4c([C@@H](C)Nc5ccc(Cl)nc5C(=O)O)cc(F)cc4c3=O)C2)C[C@@H](C)O1 [Compound C127] | > 5000 nM | ≤ 500 nM |
| C[C@@H](Nc1ccc(Cl)nc1C(=O)O)c1cc(Cl)cc2c(=O)c3c(oc12)CN(S(=O)(=O)N1CCOCC1)CC3 [Compound C66] | > 5000 nM | ≤ 500 nM |
| C[C@@H](Nc1ccc(Cl)nc1C(=O)O)c1cc(F)cc2c(=O)c3c(oc12)CN(S(=O)(=O)c1ccccc1)CC3 [Compound C77] | > 5000 nM | ≤ 500 nM |
| Cc1cc(C(C)Nc2ccccc2C(=O)O)c2oc3c(c(=O)c2c1)CCN(C(=O)N1CCCC1)C3 (single isomer, unassigned) [Compound C50] | > 5000 nM | ≤ 500 nM |
| Cc1cnn(C)c1S(=O)(=O)N1CCc2c(oc3c([C@@H](C)Nc4ccc(Cl)nc4C(=O)O)cc(F)cc3c2=O)C1 [Compound C128] | > 5000 nM | ≤ 500 nM |
| C[C@@H](Nc1ccccc1C(=O)O)c1cc(F)cc2c(=O)c3c(oc12)CN(S(=O)(=O)N1CCOCC1)CC3 [Compound C80] | > 5000 nM | ≤ 500 nM |
| C[C@@H](Nc1ccccc1C(=O)O)c1cc(F)cc2c(=O)c3c(oc12)CN(S(=O)(=O)C1CC1)CC3 [Compound C78] | > 5000 nM | 500 to 2000 nM |
| C[C@@H](Nc1ccc(Cl)nc1C(=O)O)c1cc(F)cc2c(=O)c3c(oc12)CN(S(=O)(=O)C1CCCC1)CC3 [Compound C108] | > 5000 nM | 500 to 2000 nM |
| C[C@@H]1CN(S(=O)(=O)N2CCc3c(oc4c([C@@H](C)Nc5ccc(Cl)nc5C(=O)O)cc(F)cc4c3=O)C2)CCO1 [Compound C122] | > 5000 nM | ≤ 500 nM |
| C[C@H]1CN(S(=O)(=O)N2CCc3c(oc4c([C@@H](C)Nc5ccc(Cl)nc5C(=O)O)cc(F)cc4c3=O)C2)C[C@H](C)O1 [Compound C132] | > 5000 nM | ≤ 500 nM |
| C[C@@H](Nc1ccc(Cl)nc1C(=O)O)c1cc(F)cc2c(=O)c3c(oc12)CN(S(=O)(=O)N1CCC(F)(F)CC1)CC3 [Compound C121] | > 5000 nM | ≤ 500 nM |

Other lines, results leading:

| IC50 [1] | IC50 [2] | Structure (SMILES) |
| --- | --- | --- |
| > 5000 nM | ≤ 500 nM | Cc1cc([C@@H](C)Nc2ccccc2C(=O)O)c2oc3c(c(=O)c2c1)CCN(S(=O)(=O)c1c(C)nnn1C)C3 [Compound C156] |
| > 5000 nM | ≤ 500 nM | Cc1cc([C@@H](C)Nc2ccccc2C(=O)O)c2oc3c(c(=O)c2c1)CCN(S(=O)(=O)c1c(C)noc1C)C3 [Compound C139] |
| > 5000 nM | ≤ 500 nM | Cc1cc([C@@H](C)Nc2ccccc2C(=O)O)c2oc3c(c(=O)c2c1)CCN(S(=O)(=O)N1C[C@@H](C)O[C@H](C)C1)C3 [Compound C154] |
| > 5000 nM | ≤ 500 nM | Cc1cc([C@@H](C)Nc2ccccc2C(=O)O)c2oc3c(c(=O)c2c1)CCN(S(=O)(=O)N1CCOC2(CC2)C1)C3 [Compound C147] |
| > 5000 nM | ≤ 500 nM | [2H]C([2H])([2H])n1ncc(C)c1S(=O)(=O)N1CCc2c(oc3c([C@@H](C)Nc4ccccc4C(=O)O)cc(C)cc3c2=O)C1 [Compound C177] |
| > 5000 nM | ≤ 500 nM | C[C@@H](Nc1ccc(Cl)nc1C(=O)O)c1cc(F)cc2c(=O)c3c(oc12)CN(S(=O)(=O)c1c(F)ccc(F)c1F)CC3 [Compound C135] |
| > 5000 nM | 500 to 2000 nM | Cc1cc([C@@H](C)Nc2ccccc2C(=O)O)c2oc3c(c(=O)c2c1)CCN(S(C)(=O)=O)C3 [Compound C168] |
| > 5000 nM | ≤ 500 nM | CC[C@H](C)N1CCc2c(oc3c([C@@H](C)Nc4ccccc4C(=O)O)cc(C)cc3c2=O)C1 [Compound C178] |
| > 5000 nM | ≤ 500 nM | CC(Nc1ccccc1C(=O)O)c1cc(F)cc2c(=O)c3c(oc12)C(C)N(S(=O)(=O)C(C)C)CC3 (single isomer, unassigned) [Compound C163] |
| > 5000 nM | 500 to 2000 nM | C[C@@H](Nc1ccccc1C(=O)O)c1cc(F)cc2c(=O)c3c(oc12)CN(S(=O)(=O)N1CCC(F)(F)CC1)CC3 [Compound C141] |
| > 5000 nM | ≤ 500 nM | Cc1cc([C@@H](C)Nc2ccccc2C(=O)O)c2oc3c(c(=O)c2c1)CCN(S(=O)(=O)c1ccccc1F)C3 [Compound C162] |
| > 5000 nM | ≤ 500 nM | C[C@@H](Nc1ccccc1C(=O)O)c1cc(F)cc2c(=O)c3c(oc12)CN(S(=O)(=O)c1cccc2c1CCO2)CC3 [Compound C150] |
| > 5000 nM | ≤ 500 nM | Cc1nnn(C)c1S(=O)(=O)N1CCc2c(oc3c([C@@H](C)Nc4ccc(Cl)nc4C(=O)O)cc(F)cc3c2=O)C1 [Compound C134] |
| > 5000 nM | ≤ 500 nM | C[C@@H](Nc1ccccc1C(=O)O)c1cc(F)cc2c(=O)c3c(oc12)CN(S(=O)(=O)N1CCOC2(CC2)C1)CC3 [Compound C148] |
| > 5000 nM | ≤ 500 nM | C[C@@H](Nc1ccccc1C(=O)O)c1cc(F)cc2c(=O)c3c(oc12)CN(S(=O)(=O)C1CCOCC1)CC3 [Compound C146] |
| > 5000 nM | ≤ 500 nM | Cc1cc([C@@H](C)Nc2ccccc2C(=O)O)c2oc3c(c(=O)c2c1)CCN(Cc1ccccc1)C3 [Compound C176] |
| > 5000 nM | ≤ 500 nM | Cc1nsc(C)c1S(=O)(=O)N1CCc2c(oc3c([C@@H](C)Nc4ccccc4C(=O)O)cc(F)cc3c2=O)C1 [Compound C160] |
| > 5000 nM | ≤ 500 nM | C[C@@H]1CN(S(=O)(=O)N2CCc3c(oc4c([C@@H](C)Nc5ccccc5C(=O)O)cc(F)cc4c3=O)C2)CCO1 [Compound C145] |
| > 5000 nM | 500 to 2000 nM | Cc1cc([C@@H](C)Nc2ccccc2C(=O)O)c2oc3c(c(=O)c2c1)CCN(C(C)C)C3 [Compound C171] |
| > 5000 nM | ≤ 500 nM | Cc1cc([C@@H](C)Nc2ccccc2C(=O)O)c2nc3c(c(=O)n2c1)CCN(S(=O)(=O)c1c(C)cnn1C)C3 [Compound C189] |
